The source of these data is the PolyMetriX glass transition set.

The structures appear in SMILES notation.

Compound `*C(=O)N1C(=S)N(C(=O)c2ccc3c(c2)C(=O)N(c2ccc(Oc4ccc(N5C(=O)c6ccc(*)cc6C5=O)cc4)cc2)C3=O)C(C)=C(C(=O)OCC)C1c1ccccc1` (repeat unit) returned a glass transition temperature of 155.00 °C. The compound `*C(=O)Oc1c(C)cc(C(C)(C)c2cc(C)c(OC(=O)c3ccc4c(c3)C(=O)N(c3ccc(-c5ccc(N6C(=O)c7ccc(*)cc7C6=O)cc5C)c(C)c3)C4=O)c(C)c2)cc1C` (repeat unit) yielded a glass transition temperature of 182.00 °C. As for `*C(=O)Oc1ccc(C2(c3ccc(OC(=O)c4ccc5c(c4)C(=O)N(c4ccc(-c6ccc(N7C(=O)c8ccc(*)cc8C7=O)cc6C)c(C)c4)C5=O)cc3)C3CC4CC(C3)CC2C4)cc1` (repeat unit), the figure is 222.00 °C; as for `*C(=O)Oc1ccc(C2(c3ccc(OC(=O)c4ccc5c(c4)C(=O)N(c4ccc(-c6ccc(N7C(=O)c8ccc(*)cc8C7=O)cc6C)c(C)c4)C5=O)cc3)CCC(C(C)(C)C)CC2)cc1` (repeat unit), 217.00 °C. `*C(=O)Oc1ccc(C2(c3ccc(OC(=O)c4ccc5c(c4)C(=O)N(c4ccc(-c6ccc(N7C(=O)c8ccc(*)cc8C7=O)cc6C)c(C)c4)C5=O)cc3)CCCCCCCCCCC2)cc1` (repeat unit): the glass transition temperature amounted to 204.00 °C. As for `*C(=O)c1ccc(Oc2ccc(-c3ccc(Oc4ccc(C(=O)c5ccc6c(c5)C(=O)N(c5ccc(Oc7ccc(N8C(=O)c9ccc(*)cc9C8=O)cc7)cc5)C6=O)cc4)cc3)cc2)cc1` (repeat unit), the figure is 233.00 °C; as for `*CCCCCCCN1C(=O)c2ccc(-c3ccc(-c4ccc5c(c4)C(=O)N(*)C5=O)cc3)cc2C1=O` (repeat unit), 135.00 °C. `*c1cc2c(cc1C)-c1cc(C)c(N3C(=O)c4ccc(-c5ccc6c(c5)C(=O)N(*)C6=O)cc4C3=O)cc1S2(=O)=O` (repeat unit): the glass transition temperature worked out at 490.00 °C. `*c1ccc(-c2c(-c3ccc(-c4ccccc4)cc3)cc(-c3ccc(OCCCCCCOc4ccc(-c5cc(-c6ccc(-c7ccccc7)cc6)c(-c6ccc(-n7c(=O)c8cc9c(=O)n(*)c(=O)c9cc8c7=O)cc6)c(-c6ccc(-c7ccccc7)cc6)c5)cc4)cc3)cc2-c2ccc(-c3ccccc3)cc2)cc1` (repeat unit) registered a glass transition temperature of 128.50 °C. As for `*c1ccc(-c2cc(-c3ccccc3)c3cc(-c4ccc5nc(*)cc(-c6ccccc6)c5c4)ccc3n2)cc1` (repeat unit), the figure is 395.00 °C; as for `*c1ccc(-c2cc(CCCCCCCC)c(-c3ccc(-c4ccc(-c5sc(-c6ccc([Si](*)(C)C)s6)cc5CCCCCCCC)s4)s3)s2)s1` (repeat unit), 31.00 °C; as for `*c1ccc(-c2cc(CCCCCCCC)c(-c3ccc(-c4ccc(-c5sc(-c6ccc([Si](*)(CCCC)CCCC)s6)cc5CCCCCCCC)s4)s3)s2)s1` (repeat unit), -1.00 °C. As for `*c1ccc(-c2cc(CCCCCCOC(=O)COc3ccccc3)c(*)s2)s1` (repeat unit), the figure is 79.00 °C. `*c1ccc(-c2ccc(-c3ccc(-c4cc(-c5ccccc5)c5cc(Oc6ccc7nc(*)cc(-c8ccccc8)c7c6)ccc5n4)cc3)cc2)cc1` (repeat unit): the glass transition temperature turned out to be 300.00 °C. `*c1ccc(-c2ccc(-c3ccc(-c4ccc(-c5cc(-c6ccccc6)c6cc(Oc7ccc8nc(*)cc(-c9ccccc9)c8c7)ccc6n5)cc4)cc3)cc2)cc1` (repeat unit) returned a glass transition temperature of 310.00 °C. In turn, `*c1ccc(-c2ccc(-c3ccc(-c4ccc(-c5ccc6c(c5)C(=O)N(c5ccc(Oc7ccc(N8C(=O)c9ccc(*)cc9C8=O)cc7)cc5)C6=O)cc4)cc3)cc2)cc1` (repeat unit) showed a glass transition temperature of 244.00 °C. For the compound `*c1ccc(-c2ccc(-c3ccc(-n4c(=O)c5cc6c(=O)n(*)c(=O)c6c(C(F)(F)F)c5c4=O)cc3)cc2)cc1` (repeat unit), the glass transition temperature is 364.00 °C. Regarding `*c1ccc(-c2ccc(-c3ccc([Si](*)(C)C)s3)s2)s1` (repeat unit), the glass transition temperature was 45.00 °C. As for `*c1ccc(-c2ccc(-c3ccc([Si](CCCC)(CCCC)[Si](*)(CCCC)CCCC)s3)s2)s1` (repeat unit), the figure is -5.00 °C; as for `*c1ccc(-c2ccc(-c3cnc4cc(Oc5ccc6nc(*)cnc6c5)ccc4n3)cc2)cc1` (repeat unit), 390.00 °C; as for `*c1ccc(-c2ccc(-c3nc4ccccc4c(-c4ccc(Oc5ccc(-c6c(-c7ccccc7)c(*)nc7ccccc67)cc5)cc4)c3-c3ccccc3)cc2)cc1` (repeat unit), 345.00 °C. `*c1ccc(-c2ccc(-n3c(=O)c4c(C(F)(F)F)c5c(=O)n(*)c(=O)c5c(C(F)(F)F)c4c3=O)cc2C(F)(F)F)c(C(F)(F)F)c1` (repeat unit) displayed a glass transition temperature of 304.00 °C. Compound `*c1ccc(-c2ccc(-n3c(=O)c4cc5c(=O)n(*)c(=O)c5cc4c3=O)cc2F)c(F)c1` (repeat unit) displayed a glass transition temperature of 398.00 °C. Compound `*c1ccc(-c2ccc(N(*)c3ccc(C)cc3)cc2)cc1` (repeat unit) displayed a glass transition temperature of 85.00 °C. The compound `*c1ccc(-c2ccc(N3C(=O)c4ccc(Oc5ccc6c(c5)C(=O)N(*)C6=O)cc4C3=O)cc2C)c(C)c1` (repeat unit) gave a glass transition temperature of 325.00 °C. On to `*c1ccc(-c2ccc([Si](*)(C)C)s2)s1` (repeat unit), for which the glass transition temperature is 45.00 °C.

As for `*c1ccc(-c2ccc([Si](CCCC)(CCCC)[Si](*)(CCCC)CCCC)s2)s1` (repeat unit), the glass transition temperature was -20.00 °C.

`*c1ccc(-c2ccc3c(c2)C(CCCCCC)(CCCCCC)c2cc(*)ccc2-3)cc1` (repeat unit) came in with a glass transition temperature of 106.20 °C. With `*c1ccc(-c2ccc3c(c2)C(CCCCCCBr)(CCCCCCBr)c2cc(*)ccc2-3)cc1` (repeat unit), the glass transition temperature was 122.00 °C.

In turn, `*c1ccc(-c2cnc3cc(-c4ccc5nc(*)cnc5c4)ccc3n2)cc1` (repeat unit) displayed a glass transition temperature of 350.00 °C. `*c1ccc(-c2cnc3cc(Oc4ccc5nc(*)cnc5c4)ccc3n2)cc1` (repeat unit): the glass transition temperature stood at 306.00 °C. As for `*c1ccc(-c2cnc3ccc(-c4ccc5nc(*)cnc5c4)cc3n2)cc1` (repeat unit), the figure is 376.00 °C; as for `*c1ccc(-c2cnc3ccc(-c4ccc5ncc(*)nc5c4)cc3n2)cc1` (repeat unit), 376.00 °C; as for `*c1ccc(-n2ccc(-c3ccc(-c4ccn(*)n4)cc3)n2)cc1` (repeat unit), 75.00 °C.

Turning to `*c1ccc(C2(c3ccc(-c4cc(-c5ccccc5)c5cc(-c6ccc7nc(*)cc(-c8ccccc8)c7c6)ccc5n4)cc3)c3ccccc3C(=O)c3ccccc32)cc1` (repeat unit), the glass transition temperature amounted to 417.00 °C. For the compound `*c1ccc(Cc2ccc(N3C(=O)c4ccc(-c5ccc(-c6ccc(-c7ccc(-c8ccc(-c9ccc%10c(c9)C(=O)N(*)C%10=O)cc8)cc7)cc6)cc5)cc4C3=O)cc2)cc1` (repeat unit), the glass transition temperature stood at 244.00 °C.

Take `*c1ccc(Oc2ccc(N3C(=O)c4cc(-c5ccc([Si](C)(C)C)cc5)c(-c5cc6c(cc5-c5ccc([Si](C)(C)C)cc5)C(=O)N(*)C6=O)cc4C3=O)cc2)cc1` (repeat unit): the glass transition temperature was determined as 348.00 °C.
